Patent publication US10160762B2, “6-alkyl dihydropyrazolopyrimidinone compounds as PDE2 inhibitors” (Merck Sharp & Dohme Corp., priority 2015, dated 2018)

molecular target: T1, human PDE2A1 (Homo sapiens, UniProt O00408); experiment: IMAP FP PDE assay, human PDE2A1; format: biochemical; details: Lab B; read-out: Human PDE2 Ki (nM) Lab B
T1 construct: GST; purchased BPS Bioscience (San Diego, Calif.) 60020; host or cells: insect cells
How it was run: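 FP (IMAP) read after 60 min room-temperature reaction of insect-cell GST-human PDE2A1 with 50 nM FAM-cAMP plus 1000 nM cGMP (pH 7.2 Tris, Mg2+, DTT). Compounds titrated 3-fold over ten points. Apparent Ki derived assuming KM of 10,000 nM; enzyme at 20% substrate turnover.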

T1 sequence (O00408 1-920 isoform O00408-2): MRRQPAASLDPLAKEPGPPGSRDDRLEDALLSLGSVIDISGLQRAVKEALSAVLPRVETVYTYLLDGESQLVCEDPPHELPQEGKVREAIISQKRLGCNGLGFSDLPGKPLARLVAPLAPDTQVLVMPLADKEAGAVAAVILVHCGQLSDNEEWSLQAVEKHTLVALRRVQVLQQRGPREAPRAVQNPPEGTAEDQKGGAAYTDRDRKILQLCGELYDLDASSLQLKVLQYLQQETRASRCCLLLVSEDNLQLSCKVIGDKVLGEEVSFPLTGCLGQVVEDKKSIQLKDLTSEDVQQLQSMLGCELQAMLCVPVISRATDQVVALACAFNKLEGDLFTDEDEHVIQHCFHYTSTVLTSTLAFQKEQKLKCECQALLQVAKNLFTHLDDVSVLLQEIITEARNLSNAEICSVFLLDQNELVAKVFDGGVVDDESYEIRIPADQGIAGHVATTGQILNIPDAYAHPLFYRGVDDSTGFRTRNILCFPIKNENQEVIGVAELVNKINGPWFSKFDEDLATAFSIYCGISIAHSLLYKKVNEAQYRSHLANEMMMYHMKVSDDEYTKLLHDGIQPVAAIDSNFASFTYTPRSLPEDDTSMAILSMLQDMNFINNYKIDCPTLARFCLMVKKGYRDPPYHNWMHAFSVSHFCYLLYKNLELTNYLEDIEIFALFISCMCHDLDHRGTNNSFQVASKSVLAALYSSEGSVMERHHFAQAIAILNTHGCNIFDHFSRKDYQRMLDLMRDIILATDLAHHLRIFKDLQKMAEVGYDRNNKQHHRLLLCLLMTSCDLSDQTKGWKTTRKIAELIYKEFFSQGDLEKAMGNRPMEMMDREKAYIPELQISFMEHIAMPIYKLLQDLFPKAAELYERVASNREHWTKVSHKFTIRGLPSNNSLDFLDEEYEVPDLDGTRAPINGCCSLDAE

| Ki [nM] | Structure (SMILES) |
| --- | --- |
| 3.3 | Cc1nc2c(c(CO)nn2C(c2ccc(C(F)(F)F)c(F)c2)C(C)C)c(=O)[nH]1 (single isomer, unassigned) [Example 87, (S)- or (R)-1-(1-(3-Fluoro-4-(trifluoromethyl)phenyl)-2-methylpropyl)-3-(hydroxymethyl)-6-methyl-1H-pyrazolo[3,4-d]pyrimidin-4(5H)-one] |
| 45 | Cc1nc2c(c(CO)nn2C(c2ccc(C(C)(C)C)cc2)C2CC2)c(=O)[nH]1 (single isomer, unassigned) [Example 88, (R)- or (S)-1-((4-tert-Butylphenyl)(cyclopropyl)methyl)-3-(hydroxymethyl)-6-methyl-1H-pyrazolo[3,4-d]pyrimidin-4(5H)-one] |
| 0.33 | Cc1nc2c(c(CO)nn2C(c2ccc(C(C)(C)C)cc2)C2CC2)c(=O)[nH]1 (single isomer, unassigned) [Example 89, (S)- or (R)-1-((4-tert-Butylphenyl)(cyclopropyl)methyl)-3-(hydroxymethyl)-6-methyl-1H-pyrazolo[3,4-d]pyrimidin-4(5H)-one] |
| 78 | Cc1nc2c(c(CO)nn2C(c2ccc(C(F)(F)F)c(F)c2)C2CC2)c(=O)[nH]1 (single isomer, unassigned) [Example 90, (R)- or (S)-1-(Cyclopropyl(3-fluoro-4-(trifluoromethyl)phenyl)methyl)-3-(hydroxymethyl)-6-methyl-1H-pyrazolo[3,4-d]pyrimidin-4(5H)-one] |
| 1.1 | Cc1nc2c(c(CO)nn2C(c2ccc(C(F)(F)F)c(F)c2)C2CC2)c(=O)[nH]1 (single isomer, unassigned) [Example 91, (S)- or (R)-1-(Cyclopropyl(3-fluoro-4-(trifluoromethyl)phenyl)methyl)-3-(hydroxymethyl)-6-methyl-1H-pyrazolo[3,4-d]pyrimidin-4(5H)-one] |
| 8.3 | Cc1nc2c(c(CO)nn2C(c2ccc(OC(F)(F)F)c(F)c2)C2CC2)c(=O)[nH]1 (single isomer, unassigned) [Example 92, (R)- or (S)-1-(Cyclopropyl(3-fluoro-4-(trifluoromethoxy)phenyl)methyl)-3-(hydroxymethyl)-6-methyl-1H-pyrazolo[3,4-d]pyrimidin-4(5H)-one] |
| 1.7 | Cc1nc2c(c(CO)nn2C(c2ccc(OC(F)(F)F)c(F)c2)C2CC2)c(=O)[nH]1 (single isomer, unassigned) [Example 93, (S)- or (R)-1-(Cyclopropyl(3-fluoro-4-(trifluoromethoxy)phenyl)methyl)-3-(hydroxymethyl)-6-methyl-1H-pyrazolo[3,4-d]pyrimidin-4(5H)-one] |
| 0.96 | COc1ccc(Cc2nc3c(c(CF)nn3C(C)c3ccc(C(F)(F)F)cc3)c(=O)[nH]2)cc1 (single isomer, unassigned) [Example 219, (S)- or (R)-3-(Fluoromethyl)-6-(4-methoxybenzyl)-1-(1-(4-(trifluoromethyl)phenyl)ethyl)-1H-pyrazolo[3,4-d]pyrimidin-4(5H)-one] |
| 1.3 | COc1cccc(Cc2nc3c(c(CF)nn3C(C)c3ccc(C(F)(F)F)cc3)c(=O)[nH]2)c1 (single isomer, unassigned) [Example 221, (S)- or (R)-3-(Fluoromethyl)-6-(3-methoxybenzyl)-1-(1-(4-(trifluoromethyl)phenyl)ethyl)-1H-pyrazolo[3,4-d]pyrimidin-4(5H)-one] |
| 0.48 | Cc1nc2c(c(CF)nn2C(c2ccc(OC(F)(F)F)cc2)C2CC2)c(=O)[nH]1 (single isomer, unassigned) [Example 224, (R)- or (S)-1-(Cyclopropyl(4-(trifluoromethoxy)phenyl)methyl)-3-(fluoromethyl)-6-methyl-1,5-dihydro-4H-pyrazolo[3,4-d]pyrimidin-4-one] |
| 0.32 | Cc1nc2c(c(CF)nn2C(c2ccc(C(F)(F)F)c(F)c2)C2CC2)c(=O)[nH]1 (single isomer, unassigned) [Example 226, (R)- or (S)-1-(Cyclopropyl(3-fluoro-4-(trifluoromethyl)phenyl)methyl)-3-(fluoromethyl)-6-methyl-1,5-dihydro-4H-pyrazolo[3,4-d]pyrimidin-4-one] |
| 0.42 | Cc1nc2c(c(CF)nn2C(c2ccc(OC(F)(F)F)c(F)c2)C2CC2)c(=O)[nH]1 (single isomer, unassigned) [Example 228, (R)- or (S)-1-(Cyclopropyl(3-fluoro-4-(trifluoromethoxy)phenyl)methyl)-3-(fluoromethyl)-6-methyl-1,5-dihydro-4H-pyrazolo[3,4-d]pyrimidin-4-one] |
| 11 | Cc1nc2c(c(CF)nn2C(c2ccc(C(F)(F)F)cc2)C(C)(C)C)c(=O)[nH]1 (single isomer, unassigned) [Example 234, (S)- or (R)-1-(2,2-Dimethyl-1-(4-(trifluoromethyl)phenyl)propyl)-3-(fluoromethyl)-6-methyl-1H-pyrazolo[3,4-d]pyrimidin-4(5H)-one] |
| 1.9 | Cc1nc2c(c(CCO)nn2C(C)c2ccc(C(F)(F)F)cc2)c(=O)[nH]1 (single isomer, unassigned) [Example 250] |
| 16 | Cc1nc2c(c(C#N)nn2C(C)c2ccc(C(F)(F)F)cc2)c(=O)[nH]1 (single isomer, unassigned) [Example 252] |
| 1.6 | Cc1nc2c(c(C(F)(F)CO)nn2C(C)c2ccc(C(F)(F)F)cc2)c(=O)[nH]1 (single isomer, unassigned) [Example 255] |
| 17 | COCc1nn(C(C)c2ccc(C(F)(F)F)cc2)c2nc(C)[nH]c(=O)c12 (single isomer, unassigned) [Example 279] |
| 77 | Cc1nc2c(c(CC#N)nn2C(C)c2ccc(C(F)(F)F)cc2)c(=O)[nH]1 (single isomer, unassigned) [Example 280] |
| 2 | Cc1nc2c(c(CC#N)nn2C(C)c2ccc(C(F)(F)F)cc2)c(=O)[nH]1 (single isomer, unassigned) [Example 281] |
| 111 | Cc1nc2c(c(CC(F)F)nn2C(C)c2ccc(C(F)(F)F)cc2)c(=O)[nH]1 (single isomer, unassigned) [Example 285] |
| 2 | Cc1nc2c(c(CC(F)F)nn2C(C)c2ccc(C(F)(F)F)cc2)c(=O)[nH]1 (single isomer, unassigned) [Example 286] |
| 3.5 | COCc1nc2c(c(CO)nn2C(C)c2ccc(C(F)(F)F)cc2)c(=O)[nH]1 (single isomer, unassigned) [Example 293] |
| 4.9 | Cc1nc2c(c(CO)nn2C2(c3ccc(C(F)(F)F)cc3)CCC2)c(=O)[nH]1 [Example 78, 3-(Hydroxymethyl)-6-methyl-1-(1-(4-(trifluoromethyl)phenyl)cyclobutyl)-1H-pyrazolo[3,4-d]pyrimidin-4(5H)-one] |
| 7.2 | Cc1nc2c(c(/C=N\O)nn2C(C)c2ccc(C(F)(F)F)cc2)c(=O)[nH]1 (centres unmarked) [Example 251, (Z)-6-Methyl-4-oxo-1-(1-(4-(trifluoromethyl)phenyl)ethyl)-4,5-dihydro-1H-pyrazolo[3,4-d]pyrimidine-3-carbaldehyde oxime] |
| 64 | CC(c1ccc(C(F)(F)F)cc1)n1nc(CO)c2c(=O)[nH]c(C(F)F)nc21 (centres unmarked) [Example 284, 6-(Difluoromethyl)-3-(hydroxymethyl)-1-(1-(4-(trifluoromethyl)phenyl)ethyl)-1H-pyrazolo[3,4-d]pyrimidin-4(5H)-one] |

| Structure (SMILES) | Ki [nM] |
| --- | --- |
| Cc1nc2c(c(C=O)nn2C(C)c2ccc(C(F)(F)F)cc2)c(=O)[nH]1 (centres unmarked) [Example 248, 6-Methyl-4-oxo-1-(1-(4-(trifluoromethyl)phenyl)ethyl)-4,5-dihydro-1H-pyrazolo[3,4-d]pyrimidine-3-carbaldehyde] | 66 |
